# Measured values published in patent US9067923B2, “Substituted quinoxalines” (Kyowa Hakko Kirin Co., Ltd., priority 2011, dated 2015).
# Experiments:
# CYP3A4 = assay: Induction of CYP3A4 using HepaRG cells (midazolam metabolizing activity); assay type: in vitro ADME; details: 1 μmol/L test compound, 72 hours, 1'-hydroxymidazolam formation relative to DMSO negative control
# Protocol: CYP3A4-inducing activity was evaluated using HepaRG cells (Biopredic international). HepaRG cells were suspended in a medium at a concentration of 0.72×10^6 cells/mL and added in a volume of 100 μL to each well of a 96-well collagen coated plate (Biopredic international). The medium used for seeding HepaRG cells was HepaRG Thawing and Seeding Medium 670 (Biopredic international) and the medium used during treatment with a test compound was HepaRG Serum-free Induction Medium 650 (Biopredic international). Three days after the seeding of HepaRG cells, treatment with a test compound was started. After 200 μL of HepaRG Serum-free Induction Medium 650 was added to each well of the 96-well, collagen plate, a test compound dissolved in dimethylsulfoxide (DMSO) was added in a volume of 0.5 μL to each well so that the final concentration was 1 μmol/L. The well to which only DMSO was added was used as a negative control. The medium in the wells containing the test compound was replaced every 24 hours and the treatment with the test compound was continued for 72 hours. The fourth day after the start of the treatment with the test compound, midazolam, which is a typical substrate for CYP3A4, was added and CYP3A4-inducing activity was evaluated by measuring changes in the metabolic activity. The medium was removed by suction and each well was washed twice with PBS (150 μL/well) warmed to 37° C. HepaRG Serum-free Induction Medium 650 containing 20 μmol/L midazolam was warmed to 37° C. and added in a volume of 100 μL to each well. The plate was incubated in a CO2 incubator for 2 hours. At the end of the reaction, 70 μL of the reaction medium was recovered from each well and mixed with 70 μL of a methanol solution containing an internal standard (propranolol, 2 μmol/L). The mixture was centrifuged (at 5000×g at 4° C. for 10 minutes) and the supernatant was used as an analysis sample. The midazolam metabolizing activity was evaluated by measuring the amount of a produced metabolite by CYP3A4, 1′-hydroxymidazolam, by means of a liquid chromatograph-tandem mass spectrometry (LC-MS/MS). Agilent 1100 series (Agilent technologies) was used as the LC device, API2000 (AB sciex) was used as the MSMS device, and HTC PAL (CTC analytics) was used as the autosampler. CAPCELL PAK C18 ACR column (3 μm, 3 mm (I. D.)×35 mm, purchased from Shiseido Co., Ltd.) was used as the analytical column. The mobile phase A was 10 mmol/L aqueous ammonium acetate solution and the mobile phase B was methanol. The gradient conditions were 0 min (B=30%), 0.2 min (B=30%), 2.2 min (B=95%), 4 min (B=95%), 4.01 min (B=30%), 5 min (B=30%). The flow rate was 0.6 mL/min and the sample injection volume was 30 μL. The ions were detected by atmospheric pressure ionization mode using the MSMS device. The detection was performed by multiple reaction monitoring and the 1′-hydroxy midazolam ions were detected at m/z (precursor ion>product ion)=342.1>168.2.
# The fold induction by each test compound was determined by using formula A2 below, which is for calculating the fold induction as the ratio of the metabolic activity in the test compound-treatment group to that of the negative control group (DMSO-treatment group).
# [1] = system: production of kynurenine in human gastric cancer cell line KATO-III; assay: Inhibitory activity on the production of kynurenine (IFN-γ-treated KATO-III cells); assay type: cell-based; details: 10 μmol/L test compound, KATO-III cells treated with IFN-γ, 96 hours
# Protocol: This assay was performed by a modification of the method described in J. Biol. Chem., vol. 263, pp. 2041-2048 ([…]). For culture of the human gastric cancer cell line […], RPMI 1640 (GIBCO, 11875) supplemented with 10 vol % FBS (GIBCO, 10091-148, lot. 665285) was used. One μL of a test substance in a DMSO solution was diluted with 199 μL of the culture medium and placed in wells of a 384-well plate (10 μL/well). Next, IFN-γ (Sigma, I-3265) was added to a fresh culture medium to a concentration of 31.25 ng/mL, and KATO-III cells were suspended at 50,000 cells/mL in the culture medium. Forty μL of the suspension was added to each well (2,000 cells/well) and cultured under 5% CO2 at 37° C. for 96 hours. The final concentration of DMSO was limited to 0.1 vol % or less so that DMSO itself may not affect the kynurenine concentration measured in this assay. After the culture, 10 μL of a 30 w/v % aqueous trichloroacetic acid solution was added to each well, and incubation was performed at 65° C. for 30 minutes. The plate was centrifruged at 2,500×g for 5 minutes and 15 μL of the supernatant in each well was transferred into another 384-well plate. To the transferred supernatant, 15 μL of a 2 w/v % solution of p-dimethylaminobenzaldehyde in acetic acid was added, incubation was performed at 65° C. for 20 minutes and the absorbance was measured at 480 nm.
# Sample: the absorbance value of the well to which DMSO solution containing a test substance was added and in which the cells were treated with IFN-γ.
# Blank: the absorbance value of the well to which DMSO not containing a test substance was added and in which the cells were treated with IFN-γ.
# Control: the absorbance value of the well to which DMSO not containing a test substance was added and in which the cells were not treated with IFN-γ.
# The inhibition % of each test compound was calculated by formula A1.
# In this assay, the expression of IDO in KATO-III cells is induced by IFN-γ treatment, and kynurenine in the culture medium is quantified. The kynurenine concentration in a culture medium is known to increase in proportion to the enzymatic activity of intracellular IDO (for example, J. Biol. Chem., vol. 263, pp. 2041-2048 (1988)). […] The production of kynurenine is known to be inhibited by IDO inhibitors (for example, J. Clin. Invest., vol. 117, No. 5, pp. 1147-1154 ([…])), and thus it is speculated that compounds (I) also have an inhibitory effect on IDO.
Compound,Fold induction (CYP3A4),inhibition at 10 µM [1] [%]
"COCCS(=O)(=O)Nc1nc2ccccc2nc1O[C@H](c1ccc(-c2noc(C3CC3)n2)nc1)C(F)(F)F [Compound 37, (R)-N-(3-(1-(6-(5-cyclopropyl-1,2,4-oxadiasol-3-yl)pyridin-3-yl)-2,2,2-trifluoroethoxy)quinoxalin-2-yl)-2-methoxyethanesulfonamide]",1.33,–
"COCCS(=O)(=O)Nc1nc2ccccc2nc1O[C@H](c1ccc(-c2cnco2)nc1)C(F)(F)F [Compound 30, (R)-2-methoxy-N-(3-(2,2,2-trifluoro-1-(6-(oxazol-5-yl)pyridin-3-yl)ethoxy)quinoxalin-2-yl)ethanesulfonamide]",1.12,≥ 80
"CCCS(=O)(=O)Nc1nc2ccccc2nc1OC(c1ccc(-c2noc(C3CC3)n2)nc1)C(F)(F)F (stereo not shown) [Compound 25, N-(3-(1-(6-(5-cyclopropyl-1,2,4-oxadiazol-3-yl)pyridin-3-yl)-2,2,2-trifluoroethoxy)quinoxalin-2-yl)propane-1-sulfonamide]",1.41,≥ 80
"CCCS(=O)(=O)Nc1nc2ccccc2nc1O[C@H](c1ccc(-c2noc(C)n2)nc1)C(F)(F)F [Compound 28, (R)-N-(3-(2,2,2-trifluoro-1-(6-(5-methyl-1,2,4-oxadiaxol-3-yl)pyridin-3-yl)ethoxy)quinoxalin-2-yl)propane-1-sulfonamide]",1.27,–
"COCCS(=O)(=O)Nc1nc2ccccc2nc1OC(c1ccc(-c2noc(C)n2)nc1)C(F)(F)F (stereo not shown) [Compound 27, 2-methoxy-N-(3-(2,2,2-trifluoro-1-(6-(5-methyl-1,2,4-oxadiazol-3-yl)pyridin-3-yl)ethoxy)quinoxalin-2-yl) ethanesulfonamide]",1.21,–
